Experimental data: patent US10542989B2, “Synergistic dietary supplement compositions for enhancing physical performance and energy levels” (LAILA NUTRACEUTICALS, priority 2015, dated 2020)

Tests used:
[1] = tested on: Swiss albino mice; assay: Energy and endurance forced swim test (FST) with constant load; assay type: in vivo; conditions: for Activity during forced swimming compared to control group (in words): 10 minutes of forced swimming, day 21; for Average Velocity / Distance Travelled (mm) / Fast Swimming Time / Resting Time / Slow Swimming: oral, 21 days, 150 mg/kg (Caffeine 10 mg/kg), 10 min swim on day 21, Mean ± SEM
Experimental: The efficacy of the compositions LI12522F2, LI89032F3 and LI80020F3 for enhancing energy and endurance was further evaluated in an animal study. […] On day 21, one hour after the treatment the mice were forced to swim with a constant load (10% of its body weight attached to its tail) in an acrylic cylinder filled with water. This test was monitored for 10 minutes using the SMART video tracking system ([…]). Various swimming parameters were recorded and analyzed by smart software. […] Swiss albino mice were acclimatized for 5 days before initiation of the study. Healthy Swiss albino mice were selected and randomly divided (n=6) into different treatment groups. […] On day 21, one hour after the treatment the mice were forced to swim with a constant load (10% of its body weight attached to its tail) in an acrylic cylinder filled with water. This test was monitored for 10 minutes using the SMART video tracking system ([…]). Various swimming parameters were recorded and analyzed by smart software. Measured Swimming parameters include, resting time, slow moving time, fast moving time, total moving time, path length of swimming and average velocity.

[2] = tested on: Swiss albino mice; assay: Grip strength measurement (grip strength meter); assay type: in vivo; conditions: oral, 150 mg/kg (Caffeine 10 mg/kg), Mean ± SEM
Experimental: Similarly, after 21 days of treatment, the grip strength of mice was measured by using Grip strength meter (UgoBasile, Italy). Animals were trained and habituated to the experimental environment and conditions for 5 days. Each mice was allowed to grasp the grasping bar and it was pulled back gently in a horizontal plane by tail with gradually increasing force till the pulling force overcomes the grip strength of the animal. The force applied at the moment when the mice leaves its grasp on the grasping bar was recorded as grip strength in grams.
After 21 days of treatment Grip strength of mice was measured by using Grip strength meter (UgoBasile, Italy). Animals were trained and habituated to the experimental environment and conditions for 5 days. Each mice was allowed to grasp the grasping bar and it was pulled back gently in a horizontal plane by tail with gradually increasing force till the pulling force overcomes the grip strength of the animal. The force applied at the moment when the mice leaves its grasp on the grasping bar was recorded as grip strength in grams. Three trials were conducted on each animal and average grip strength was calculated.

Row | SMILES | Activity during forced swimming compared to control group (in words) [1] | Average Velocity [1] | Distance Travelled (mm) [1] [mm] | Fast Swimming Time [1] [s] | Resting Time [1] [s] | Slow Swimming [1] [s] | Average Grip Strength measured after 21 Days [2] [grams]
1 | C[N+](C)(C)C[C@H](O)CC(=O)[O-] [L-Carnitine] | more active and energetic | 44.24 | 26197.58 | 67.64 | 419.52 | 104.92 | 39.20 ± 7.51
2 | Cn1c(=O)c2c(ncn2C)n(C)c1=O [Caffeine] | more active and energetic | 49.80 | 28740.25 | 82.16 | 399.64 | 92.12 | 56.07 ± 10.37
